Columns and labels:
mutant STAT3 (T456A) = target: T1, mutant STAT3 (T456A) (Mus musculus, UniProt P42227, T456A); assay: Pull-down assay with mutant STAT3; type: binding; settings: compared to the STAT3
T1 construct: A coding region of Mus musculus STAT3 was amplified by PCR using full-length Mus musculus STAT3 cDNA as a template; host or cells: RAW264.7
From the text: As a method for isolating a protein complex, a pull-down assay is an assay for checking a protein-protein interaction. To identify a protein interacting with MMPP, MMPP was bound to […] epoxy-activated Sepharose 6B (Sigma, St Louis, Mo., United States).
2. Construction of plasmid: A coding region of Mus musculus STAT3 was amplified by PCR using full-length Mus musculus STAT3 cDNA as a template. The purified PCR product was doubly digested with EcoRI and XhoI, and then subcloned into a pcDNA3.1 vector. The pcDNA3.1 plasmid includes a cytomegalovirus promoter, a pUC origin of replication, and an ampicillin-resistant gene. STAT3 (T456A) mutagenesis was performed at Cosmo Genetech Co., Ltd. (Seoul, Korea), and the mutations were systematically checked by sequencing. RAW264.7 cells were seeded in a 24-well plate at a density of 1×10^5 cells/well. The cells were grown for 24 hours to reach 90% confluence, and the cells were infected with the mutant STAT3 (T456A) plasmid (Cosmo Genetech Co., Ltd., Seoul, Korea) using a mixture of the plasmid and lipofectamine in PTI-MEN. The infected cells were treated with LPS (1 μg/mL), and different concentrations of MMPP (1 to 4 μg/mL) for 12 hours. The prepared samples were subjected to Western blotting.
To check the interaction between MMPP and STAT3, a pull-down assay was carried out. MMPP was conjugated to epoxy-activated Sepharose 6B. […]

iNOS = assay: iNOS-luciferase activity assay in LPS-induced RAW 264.7 cells; type: cell-based, mouse; settings: LPS (1 µg/mL) and MMPP (0 to 4 µg/mL)
Protocol: 9. Cell infection: RAW 264.7 cells (5×10^4 cells/well) were added to a 24-well plate, and transiently infected with a STAT3-luciferase reporter plasmid and an iNOS-luciferase reporter plasmid using a Lipofectamine PLUS and plasmid mixture in OPTI-MEN.
In Experimental Example 4, a luciferase activity assay was carried out to determine whether MMPP inhibited generation of LPS-induced infective factors in RAW 264.7 cells. RAW 264.7 cells were transiently infected with an iNOS-luciferase construct, treated with LPS (1 μg/mL) alone or a combination of MMPP and LPS, and then activated for 12 hours.

RAW 264.7 cells = assay: ROS, PGE2 and pro-inflammatory cytokine assays in LPS-induced RAW 264.7 cells; type: cell-based, mouse; settings: concentration-dependent manner (0 to 4 mg/mL)
Protocol: 7. PEG2 and cytokine Assays: A PGE2 assay was carried out in the cultured RAW 264.7 cells using an ELISA kit (commercially available from R&D Systems).
8. ROS Assay: An ROS assay was carried out using an ELISA kit (commercially available from Cell Biolabs Inc.).
RAW 264.7 cells were transiently infected with a STAT3-luciferase construct, treated with LPS (1 μg/mL) alone or a combination of MMPP and LPS, and then activated for 12 hours. Thereafter, the luciferase activity, the ROS and PGE2 expression, and a level of pro-inflammatory cytokines were determined.

[1] = tested on: CAIA-induced C57BL/6 mice; assay: Collagen antibody-induced arthritis (CAIA) model; type: in vivo, mouse
Protocol: 14. Induction of rheumatoid arthritis in C57BL/6 mice: To induce rheumatoid arthritis, anti-collagen-II mAbs (CII-Ab, Arthrogen-CIA Arthritogenic Monoclonal Antibody, #53010: Chondrex, Inc., WA, USA) were intraperitoneally (i.p.) injected into 7-week-old male mice on the first day, and 50 μg of LPS was injected on the third day. To evaluate the severity of arthritis, a scoring system was applied according to the criteria.
0. No erythema and swelling are observed.
1. Slight erythema is observed in tarsals and ankle joints.
2. Slight erythema and swelling are observed from an ankle joint to the midfoot.
3. Erythema and swelling extending from ankle joints to the metatarsals are observed.
4. Erythema and severe swelling were observed throughout the ankles, feet, and fingers.
The sum of final scores was recorded daily until the sum reached 16. On the 18th day, each of the mice was anesthetized, and then located on a radiographic view box. Thereafter, a location of each of the mice was adjusted so that the mouse was disposed at a distance of 90 cm from an X-ray source. The radioanalysis on hind legs with arthritis was performed by irradiating the hind legs at […] for 0.01 seconds using an X-ray machine (BLD-150RK, Hradec Kralove, Czech Republic).
15. Immunohistochemical assay: An immunohistochemical assay was carried out using an avidin-biotin-peroxidase method known in the art. Each of joint tissue samples collected from the mice was fixed with formalin, and embedded in paraffin. These samples were continuously microtomed into sections with a thickness of 4 μm. Each of the sections was stained with haematoxylin/eosin (H&E), anti-COX-2 and anti-iNOS antibodies (Caymen Chemical, Ann Arbor, Mich.).
Referring to FIG. 10(A), MMPP (5 mg/kg, p.o.) (dissolved in 100 μL of PBS including 0.5 μL of DMSO), a vehicle (a negative control), or indomethacin (5 mg/kg, p.o./dissolved in […] of PBS after the dissolution) was administered daily to 7-week-old male C57BL/6 mice for 18 days.

[2] = 5 mg/kg, p.o. daily, last (18th) day

T1 sequence (P42227 whole entry T456A): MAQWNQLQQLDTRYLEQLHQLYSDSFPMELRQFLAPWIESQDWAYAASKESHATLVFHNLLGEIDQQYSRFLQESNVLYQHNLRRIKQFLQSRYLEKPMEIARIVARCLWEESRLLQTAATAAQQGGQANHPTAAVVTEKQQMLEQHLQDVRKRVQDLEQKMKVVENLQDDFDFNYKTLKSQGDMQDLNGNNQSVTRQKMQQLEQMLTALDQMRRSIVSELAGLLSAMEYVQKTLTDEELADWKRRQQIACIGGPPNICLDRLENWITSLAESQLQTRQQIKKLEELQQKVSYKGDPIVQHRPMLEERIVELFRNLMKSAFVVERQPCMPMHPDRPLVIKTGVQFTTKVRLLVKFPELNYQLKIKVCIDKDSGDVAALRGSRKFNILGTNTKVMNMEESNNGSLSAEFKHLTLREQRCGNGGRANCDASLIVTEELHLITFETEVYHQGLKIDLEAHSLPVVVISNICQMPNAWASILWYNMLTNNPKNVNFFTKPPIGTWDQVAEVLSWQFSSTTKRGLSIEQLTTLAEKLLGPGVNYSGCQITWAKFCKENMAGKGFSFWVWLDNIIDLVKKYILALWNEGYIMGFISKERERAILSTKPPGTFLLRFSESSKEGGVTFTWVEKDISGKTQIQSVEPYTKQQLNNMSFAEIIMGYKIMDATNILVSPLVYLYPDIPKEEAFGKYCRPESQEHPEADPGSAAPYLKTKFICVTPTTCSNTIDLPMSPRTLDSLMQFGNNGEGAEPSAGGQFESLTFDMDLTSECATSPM

In the case of `COc1ccc(C/C=C/c2ccc(O)c(OC)c2)cc1` [MMPP, 2-methoxy-4-(3-(4-methoxyphenyl)prop-1-en-1-yl)phenol], the “binding of MMPP to mutant STAT3 Thr456A” value (mutant STAT3 (T456A)) was “reduced”, the iNOS luciferase activity (iNOS) was “reduced in a concentration-dependent manner” and the PGE2 expression (RAW 264.7 cells) was “inhibited”. The ROS expression (RAW 264.7 cells) was “inhibited”, the “level of pro-inflammatory cytokines (TNF-α, IL-6 and IL-1)” value (RAW 264.7 cells) was “inhibited” and the “degrees of bone destruction and fibrosis in ankle joints (histopathologic evaluation)” value ([1]; 5 mg/kg) was “remarkably reduced”. For the same compound, the “tissue edema and bone destruction of hind legs (radiographic inspection)” value ([1]; 5 mg/kg) was “significantly reduced”, the clinical score [1, 2] was “approximately 4.67” and the “clinical score lower than that of the CAIA group” value [1, 2] was 66.5%. The “anti-arthritic effect in CAIA model” value ([1]; mouse, in vivo) was “had an anti-arthritic effect”.

— patent publication US10265276B2, “Pharmaceutical composition for preventing or treating arthritis or inflammatory disease containing 2-methoxy-4-(3-(4-methoxyphenyl)propyl-1-en-1-yl)phenol as active ingredient” (CHUNGBUK NATIONAL UNIVERSITY INDUSTRY-ACADEMIC COOPERATION …, priority 2015, dated 2019)
